One series has as its system hKV1.3. Kind of series: Two-electrode voltage-clamp on Xenopus oocytes expressing KV1.3. Type of series: cell-based, human. To be noted: 8 µM peptide, Xenopus laevis oocytes, 18–22 °C, n ≥ 3. The text has this:
(§1) For the expression of KV channels (mammalian rKV1.2, hKV1.3, rKV2.1, hKV3.1, rKV4.2, hKV7.2/hKV7.3, hKV10.1, hERG and Shaker IR from the fruit fly Drosophila melanogaster), NaV channels (mammalian rNaV1.2, rNaV1.3, rNaV1.4, hNaV1.5, rNaV1.6, hNaV1.7, BgNaV from the cockroach Blattella germanica, as well as the auxiliary subunits rβ1, hβ1), and the hCaV3.1 channel in Xenopus oocytes, the linearized plasmids were transcribed using the T7 or SP6 mMESSAGE-mMACHINE transcription kit (Ambion, Carlsbad, CA, USA). The harvesting of stage V–VI oocytes from an anaesthetized female Xenopus laevis frog was described previously and was in compliance with the regulations of the European Union (EU) concerning the welfare of laboratory animals as declared in Directive 2010/63/EU. The use of X. laevis oocytes was approved by the Animal Ethics Committee of the KU Leuven with the licence number P186/2019. […]
(§2) Two-electrode voltage-clamp recordings were performed at room temperature (18–22 °C) using a Geneclamp 500 amplifier (Molecular Devices, Downingtown, PA, USA) controlled by a pClamp data acquisition system (Axon Instruments, Union City, CA, USA). Whole cell currents from oocytes were recorded 1–7 days after injection. […]

The target in series [1] is T1, human insulin receptor isoform B (IR-B) (Homo sapiens, UniProt P06213).
T1 construct: expressed in transfected cells; host or cells: IR-B cells (IGF-IR null mouse fibroblasts overexpressing human IR-B)
As to the kind of experiment: Competition binding assay with europium-labelled insulin on solubilized, immunocaptured IR-B. The following applies: even at 10^−5 M concentration; 16 h at 4 °C, n ≥ 3. On the procedure:
(§3) IGF-IR and IR-B were solubilized from cells using lysis buffer (20 mM HEPES, 150 mM NaCl, 1.5 mM MgCl2, 10% (v/v) glycerol, 1% (v/v) Triton X-100, 1 mM EGTA (pH 7.5)) for 1 h at 4 °C, and lysates were centrifuged for 10 min at 3500 rpm. Solubilized IGF-1R or IR-B (100 µL) was used to coat each well of a white Greiner Lumitrac 600 plate previously coated with 24–31 anti-human IGF-1R antibody or 83-7 anti-human IR antibody. […] Wells were washed three times with 20 mM Tris, 150 mM NaCl, 0.1% (v/v) Tween 20, and then DELFIA enhancement solution (100 µL) was added. Time-resolved fluorescence was measured with 340 nm excitation and 612 nm emission filters using a Victor X4, 2030 Multilabel Reader (Perkin Elmer). All assays were repeated at least 3 times with 3 technical replicates each, except for the IlO1_i1 peptide binding IGF-IR, where 2 assays were conducted. Mean IC50 values were calculated using the statistical software package Prism v9.0.0 (GraphPad Software) after curve fitting with a nonlinear regression (one-site) model.

A further series concerns KV11.1 (hERG). As to the kind of experiment: Two-electrode voltage-clamp on Xenopus oocytes expressing KV11.1 (hERG). The series is classed as cell-based. The following applies: human, Xenopus laevis oocytes expressing KV11.1 (hERG), pH 7.4, 8 µM peptide, 18–22 °C, n ≥ 3, read-out: Inhibitory activity on KV11.1 (hERG) current.
Description: as §1, §2

The next series relates to rKV1.2. Kind of series: Two-electrode voltage-clamp on Xenopus oocytes expressing KV1.2. The following applies: 8 µM peptide, Xenopus laevis oocytes, 18–22 °C, n ≥ 3. Type of series: cell-based, rat.
Description: as §1, §2

In the next series the test system is hKV3.1. As to the kind of experiment: Two-electrode voltage-clamp on Xenopus oocytes expressing KV3.1. The series is classed as cell-based, human. To be noted: 8 µM peptide, Xenopus laevis oocytes, 18–22 °C, n ≥ 3.
Description: as §1, §2

The target in the next series is T2, human IGF-1R (Homo sapiens, UniProt P08069).
T2 construct: expressed in transfected cells; host or cells: P6 cells (BALB/c3T3 mouse fibroblasts overexpressing IGF-IR)
As to the kind of experiment: Competition binding assay with europium-labelled IGF-I on solubilized, immunocaptured IGF-1R. The following applies: 16 h at 4 °C, n = 2 assays. The protocol: as §3

The subject of another series is rNaV1.4. Kind of series: Two-electrode voltage-clamp on Xenopus oocytes expressing NaV1.4. Type of series: cell-based, rat. The following applies: 8 µM peptide, Xenopus laevis oocytes, 18–22 °C, n ≥ 3.
Description: as §1, §2

Positions of bridges follow the written chain, without caps; N, C: chain ends. Chains are numbered I, II in the order given. No end group written: not given here.

T2 sequence (P08069 31-736 limits assumed): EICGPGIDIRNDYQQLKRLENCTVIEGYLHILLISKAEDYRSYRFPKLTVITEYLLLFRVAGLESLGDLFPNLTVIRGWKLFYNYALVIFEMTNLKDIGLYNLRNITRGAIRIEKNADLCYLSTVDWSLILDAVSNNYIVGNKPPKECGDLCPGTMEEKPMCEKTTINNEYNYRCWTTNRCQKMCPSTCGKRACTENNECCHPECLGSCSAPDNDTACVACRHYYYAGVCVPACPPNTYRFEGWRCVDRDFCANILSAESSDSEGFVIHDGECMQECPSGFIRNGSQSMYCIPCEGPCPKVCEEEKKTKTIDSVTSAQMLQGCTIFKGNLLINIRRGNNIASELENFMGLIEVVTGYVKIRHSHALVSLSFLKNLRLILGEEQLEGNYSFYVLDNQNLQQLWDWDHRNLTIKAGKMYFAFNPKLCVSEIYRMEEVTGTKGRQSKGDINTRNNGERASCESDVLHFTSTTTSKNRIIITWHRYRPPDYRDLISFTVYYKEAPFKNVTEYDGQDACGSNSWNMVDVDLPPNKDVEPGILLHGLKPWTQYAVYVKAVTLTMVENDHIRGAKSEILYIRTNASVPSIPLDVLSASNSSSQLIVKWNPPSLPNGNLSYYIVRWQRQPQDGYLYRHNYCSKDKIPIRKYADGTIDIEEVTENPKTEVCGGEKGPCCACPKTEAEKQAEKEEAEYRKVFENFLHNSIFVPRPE
T2 sequence (P08069 741-1367 partner limits assumed): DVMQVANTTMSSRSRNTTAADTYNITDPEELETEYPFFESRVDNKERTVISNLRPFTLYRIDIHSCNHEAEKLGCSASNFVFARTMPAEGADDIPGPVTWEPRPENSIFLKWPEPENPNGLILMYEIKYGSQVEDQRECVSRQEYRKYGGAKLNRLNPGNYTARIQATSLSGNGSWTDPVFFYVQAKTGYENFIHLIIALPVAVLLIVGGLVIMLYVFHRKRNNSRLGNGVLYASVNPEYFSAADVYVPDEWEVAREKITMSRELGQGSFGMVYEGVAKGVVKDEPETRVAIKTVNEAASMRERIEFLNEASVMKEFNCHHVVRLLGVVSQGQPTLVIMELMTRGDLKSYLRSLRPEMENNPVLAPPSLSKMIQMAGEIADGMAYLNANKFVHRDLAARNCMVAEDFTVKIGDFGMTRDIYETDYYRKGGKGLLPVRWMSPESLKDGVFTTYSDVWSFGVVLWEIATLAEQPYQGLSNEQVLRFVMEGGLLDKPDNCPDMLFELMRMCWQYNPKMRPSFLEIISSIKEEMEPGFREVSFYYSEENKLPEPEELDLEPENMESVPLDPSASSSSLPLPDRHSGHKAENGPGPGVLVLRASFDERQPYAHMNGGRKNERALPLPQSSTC
T1 sequence (P06213 28-758 limits assumed): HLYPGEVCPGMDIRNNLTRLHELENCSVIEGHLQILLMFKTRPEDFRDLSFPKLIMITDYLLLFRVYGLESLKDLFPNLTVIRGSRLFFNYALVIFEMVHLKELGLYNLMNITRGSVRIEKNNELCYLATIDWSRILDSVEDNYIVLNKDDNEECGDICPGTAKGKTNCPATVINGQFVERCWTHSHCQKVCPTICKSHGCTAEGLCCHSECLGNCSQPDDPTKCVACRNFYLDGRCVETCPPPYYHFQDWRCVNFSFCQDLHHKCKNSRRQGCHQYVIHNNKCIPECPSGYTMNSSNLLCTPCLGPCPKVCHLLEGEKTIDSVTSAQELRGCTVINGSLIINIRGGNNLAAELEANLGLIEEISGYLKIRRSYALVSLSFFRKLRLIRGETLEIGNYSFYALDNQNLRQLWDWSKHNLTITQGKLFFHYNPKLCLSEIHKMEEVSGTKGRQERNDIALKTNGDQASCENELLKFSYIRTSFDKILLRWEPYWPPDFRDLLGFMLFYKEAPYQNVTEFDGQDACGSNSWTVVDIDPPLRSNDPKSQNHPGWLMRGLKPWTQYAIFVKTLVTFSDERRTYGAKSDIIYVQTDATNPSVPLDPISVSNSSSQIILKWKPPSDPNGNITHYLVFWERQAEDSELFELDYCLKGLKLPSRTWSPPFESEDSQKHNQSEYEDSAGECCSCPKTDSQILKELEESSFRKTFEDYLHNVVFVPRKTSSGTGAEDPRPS
T1 sequence (P06213 763-1382 partner limits assumed): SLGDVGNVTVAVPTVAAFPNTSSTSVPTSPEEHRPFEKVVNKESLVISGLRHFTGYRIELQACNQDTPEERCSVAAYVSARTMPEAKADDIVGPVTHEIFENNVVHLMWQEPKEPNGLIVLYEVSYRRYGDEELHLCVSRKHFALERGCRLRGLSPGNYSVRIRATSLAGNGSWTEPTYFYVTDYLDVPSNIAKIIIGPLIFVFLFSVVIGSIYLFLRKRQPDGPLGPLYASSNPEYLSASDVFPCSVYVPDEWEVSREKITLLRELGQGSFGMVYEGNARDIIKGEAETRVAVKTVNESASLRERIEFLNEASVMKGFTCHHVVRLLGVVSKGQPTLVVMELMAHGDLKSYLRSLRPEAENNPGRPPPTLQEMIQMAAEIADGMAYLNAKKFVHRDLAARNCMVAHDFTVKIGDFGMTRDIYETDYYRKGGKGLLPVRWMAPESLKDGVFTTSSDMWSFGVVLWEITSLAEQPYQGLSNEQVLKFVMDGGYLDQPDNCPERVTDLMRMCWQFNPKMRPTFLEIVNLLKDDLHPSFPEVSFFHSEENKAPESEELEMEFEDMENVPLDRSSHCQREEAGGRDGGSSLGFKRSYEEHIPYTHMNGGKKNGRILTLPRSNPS

For “I: INESPQTNIDYRICGDQITQKYTELCGNPAAG / II: TDIVEECCAEGCKAEEVKEYCI (disulfide I:14-II:8, I:26-II:21, II:7-II:12) [IlO1_i1]”, the “Inhibitory activity on KV1.3 current” value in the series with hKV1.3 was found to be 11.9 ± 0.9%. Further, the “Ability to compete with europium-labelled insulin bound to IR-B” value in series [1] is listed as “unable to compete”. Besides, the inhibition at 8 µM in the series with KV11.1 (hERG) came out at 30.5 ± 1.6%. For the same substance, the “Inhibitory activity on KV1.2 current” value in the series with rKV1.2 stood at 3.6 ± 1.9%. In the series on hKV3.1, the “Inhibitory activity on KV3.1 current” value was determined as 12.7 ± 2.6%. For the same substance, the “Ability to compete with europium-labelled IGF-I binding to the IGF-1R” value on human IGF-1R is listed as “did not compete”. The “Inhibitory activity on NaV 1.4 current” value in the series on rNaV1.4 came out at 14.2 ± 2.2%.

Source of the values: paper PMC8698791, “Identification, Synthesis, Conformation and Activity of an Insulin-like Peptide from a Sea Anemone” (Biomolecules, 2021).
